{
  "source": "patent US20230043204A1",
  "about": "“DIHYDROERGOTAMINE MESYLATE FORMULATIONS AND PRE-FILLED INJECTORS FOR THERAPEUTIC DELIVERY OF THE SAME” (Scienture, Inc., priority 2019, published 2023)",
  "assay_type_in_all_cases": "physicochemical",
  "key": {"[1]": {"assay": "Stability of formulations L, M, N at accelerated conditions (40° C., sealed vials; HPLC)", "settings": "Initial", "experimental": "(§1) The examples herein describe analysis of formulations comprising DHE, and analysis of impurity content. Unless specifically indicated otherwise, analysis was carried out by HPLC according to the parameters in Tables 2-4.\n(§2) Mobile Phase A in Tables 3 and 4 contains 2.75 g of sodium 1-heptane sulfonate in 1000 mL Purified Water, pH adjusted to 2.0 with o-phosphoric acid. Mobile Phase B in Tables 3 and 4 contains 200 mL of Mobile Phase A mixed with 800 mL of acetonitrile.\nAdditional formulations “L”, “M”, and “N” were prepared according to Table 9 and analyzed for the concentration of DHE and impurities following one day in sealed vials at 40° C. Specific impurities were analyzed after storage in sealed vials after one and two weeks at 40° C. (Table 10)."}, "[2]": {"assay": "5 mg/mL DHE mesylate stability in solvents suitable for parenteral injection (HPLC)", "parameters": "Total Impurities Initial: unit not given here", "settings": "for DHE (mg/mL) After 1 Week / Total Impurities After 1 Week: 1 week 40° C. sealed vial", "experimental": "as §1, §2\nSolvents that are suitable for parenteral injections were selected, and solutions of 5 mg/mL DHE mesylate in each (Table 5) were stored at 40° C. in sealed vials. Following 1 week of storage, the remaining amount of DHE was determined by HPLC, indicating solvents compatible with stable DHE storage."}, "[3]": {"assay": "HPLC analysis of formulation J after one day of storage at room temperature", "settings": "API sample as comparison", "experimental": "as §1, §2\nAfter one day of storage at room temperature, formulation J was analyzed for DHE and impurities, as shown in the last two rows of Table 8. Testing for specific impurities relative to a sample of API (DHE mesylate) yielded the results of Table 9."}, "[4]": {"assay": "HPLC DHE and specific impurity analysis of formulations O and P on storage", "settings": "0 Time", "experimental": "as §1, §2\nThe formulation of Table 11 (“P”) was prepared for use in canine studies. An additional formulation was prepared (“O”), replacing DMSO of formula P with an equal amount of propylene glycol."}, "[5]": {"assay": "Solubility of DHE in solvents (observation)", "settings": "in DMSO, benzyl alcohol, ethanol, propylene glycol, and captisol", "description": "Based on this discovery and the solubility and stability data generated above for various solvents, preservatives, and antioxidants, additional stable formulations are included as non-limiting examples in Table 15. Prophetic formulations are included as non-limiting examples in Tables 16 and 17."}},
  "note": "Where a name gives a salt, the structure may show the parent alone.",
  "data": [
    {"smiles": "CN1C[C@H](C(=O)N[C@]2(C)O[C@@]3(O)[C@@H]4CCCN4C(=O)[C@H](Cc4ccccc4)N3C2=O)C[C@@H]2c3cccc4[nH]cc(c34)C[C@H]21", "note": "[DHE Mesylate, ergotaman-3′,6′,19-trione, 9,10-dihydro-12′-hydroxy-2′-methyl-5′-(phenylmethyl)-, (5′α)-, monomethane-sulfonate]", "values": [
      {"measurement": "% Total Impurities", "setting": "[1]", "value": 0.2, "unit": "%"},
      {"measurement": "impurity peak, RRT 0.87", "setting": "[1]", "value": 0},
      {"measurement": "impurity peak, RRT 0.92", "setting": "[1]", "value": 0.1},
      {"measurement": "impurity peak, RRT 1.22 (Impurity B)", "setting": "[1]", "value": 0.1},
      {"measurement": "DHE (mg/mL) Initial", "setting": "[2]; 5 mg/mL solution in 15% solution of Kollidon 30", "value": 1.7, "unit": "mg/mL"},
      {"measurement": "DHE (mg/mL) Initial", "setting": "[2]; 5 mg/mL solution in Alcohol, USP", "value": 5, "unit": "mg/mL"},
      {"measurement": "DHE (mg/mL) Initial", "setting": "[2]; 5 mg/mL solution in Benzyl Alcohol", "value": 4.9, "unit": "mg/mL"},
      {"measurement": "DHE (mg/mL) Initial", "setting": "[2]; 5 mg/mL solution in DMSO", "value": 5.1, "unit": "mg/mL"},
      {"measurement": "DHE (mg/mL) Initial", "setting": "[2]; 5 mg/mL solution in Glycerin, USP", "value": 1.3, "unit": "mg/mL"},
      {"measurement": "DHE (mg/mL) Initial", "setting": "[2]; 5 mg/mL solution in Glycerin:Ethanol (1:1)", "value": 5.1, "unit": "mg/mL"},
      {"measurement": "DHE (mg/mL) Initial", "setting": "[2]; 5 mg/mL solution in N,N Dimethyl Acetamide", "value": 5.1, "unit": "mg/mL"},
      {"measurement": "DHE (mg/mL) Initial", "setting": "[2]; 5 mg/mL solution in N-methyl pyrrolidone", "value": 5.1, "unit": "mg/mL"},
      {"measurement": "DHE (mg/mL) Initial", "setting": "[2]; 5 mg/mL solution in PEG 200", "value": 4.3, "unit": "mg/mL"},
      {"measurement": "DHE (mg/mL) Initial", "setting": "[2]; 5 mg/mL solution in Propylene Glycol", "value": 4.8, "unit": "mg/mL"},
      {"measurement": "DHE (mg/mL) Initial", "setting": "[2]; 5 mg/mL solution in Purified water", "value": 4.1, "unit": "mg/mL"},
      {"measurement": "DHE (mg/mL) After 1 Week", "setting": "[2]; 15% solution of Kollidon 30", "value": 3.7, "unit": "mg/mL"},
      {"measurement": "Total Impurities After 1 Week", "setting": "[2]; 15% solution of Kollidon 30", "value": 9.95},
      {"measurement": "Total Impurities Initial", "setting": "[2]; 15% solution of Kollidon 30", "value": 0.24},
      {"measurement": "DHE (mg/mL) After 1 Week", "setting": "[2]; Alcohol, USP", "value": 5, "unit": "mg/mL"},
      {"measurement": "Total Impurities After 1 Week", "setting": "[2]; Alcohol, USP", "value": 0.38},
      {"measurement": "Total Impurities Initial", "setting": "[2]; Alcohol, USP", "value": 0.24},
      {"measurement": "DHE (mg/mL) After 1 Week", "setting": "[2]; Benzyl Alcohol", "value": 4.2, "unit": "mg/mL"},
      {"measurement": "Total Impurities After 1 Week", "setting": "[2]; Benzyl Alcohol", "value": 2.51},
      {"measurement": "Total Impurities Initial", "setting": "[2]; Benzyl Alcohol", "value": 9.58},
      {"measurement": "DHE (mg/mL) After 1 Week", "setting": "[2]; DMSO", "value": 5, "unit": "mg/mL"},
      {"measurement": "Total Impurities After 1 Week", "setting": "[2]; DMSO", "value": 0.47},
      {"measurement": "Total Impurities Initial", "setting": "[2]; DMSO", "value": 0.26},
      {"measurement": "DHE (mg/mL) After 1 Week", "setting": "[2]; Glycerin, USP", "value": 6, "unit": "mg/mL"},
      {"measurement": "Total Impurities After 1 Week", "setting": "[2]; Glycerin, USP", "value": 0.33},
      {"measurement": "Total Impurities Initial", "setting": "[2]; Glycerin, USP", "value": 0.21},
      {"measurement": "DHE (mg/mL) After 1 Week", "setting": "[2]; Glycerin:Ethanol (1:1)", "value": 5.1, "unit": "mg/mL"},
      {"measurement": "Total Impurities After 1 Week", "setting": "[2]; Glycerin:Ethanol (1:1)", "value": 0.4},
      {"measurement": "Total Impurities Initial", "setting": "[2]; Glycerin:Ethanol (1:1)", "value": 0.28},
      {"measurement": "DHE (mg/mL) After 1 Week", "setting": "[2]; N,N Dimethyl Acetamide", "value": 5.4, "unit": "mg/mL"},
      {"measurement": "Total Impurities After 1 Week", "setting": "[2]; N,N Dimethyl Acetamide", "value": 0.8},
      {"measurement": "Total Impurities Initial", "setting": "[2]; N,N Dimethyl Acetamide", "value": 0.13},
      {"measurement": "DHE (mg/mL) After 1 Week", "setting": "[2]; N-methyl pyrrolidone", "value": 4.8, "unit": "mg/mL"},
      {"measurement": "Total Impurities After 1 Week", "setting": "[2]; N-methyl pyrrolidone", "value": 1.14},
      {"measurement": "Total Impurities Initial", "setting": "[2]; N-methyl pyrrolidone", "value": 0.33},
      {"measurement": "DHE (mg/mL) After 1 Week", "setting": "[2]; PEG 200", "value": 4.9, "unit": "mg/mL"},
      {"measurement": "Total Impurities After 1 Week", "setting": "[2]; PEG 200", "value": 1.36},
      {"measurement": "Total Impurities Initial", "setting": "[2]; PEG 200", "value": 0.25},
      {"measurement": "DHE (mg/mL) After 1 Week", "setting": "[2]; Propylene Glycol", "value": 5.1, "unit": "mg/mL"},
      {"measurement": "Total Impurities After 1 Week", "setting": "[2]; Propylene Glycol", "value": 0.42},
      {"measurement": "Total Impurities Initial", "setting": "[2]; Propylene Glycol", "value": 0.26},
      {"measurement": "DHE (mg/mL) After 1 Week", "setting": "[2]; Purified water", "value": 4.4, "unit": "mg/mL"},
      {"measurement": "Total Impurities After 1 Week", "setting": "[2]; Purified water", "value": 3.5},
      {"measurement": "Total Impurities Initial", "setting": "[2]; Purified water", "value": 0.24},
      {"measurement": "Total Impurities following 1 day of storage", "setting": "[3]", "value": 0.19},
      {"measurement": "impurity peak, RRT 0.75", "setting": "[3]", "value": 0.03},
      {"measurement": "impurity peak, RRT 0.84 (Imp-C)", "setting": "[3]", "value": 0.02},
      {"measurement": "impurity peak, RRT 0.9", "setting": "[3]", "value": 0.03},
      {"measurement": "impurity peak, RRT 1.24", "setting": "[3]", "value": 0.11},
      {"measurement": "% Total Impurities", "setting": "[4]", "value": 0.2, "unit": "%"},
      {"measurement": "impurity peak, RRT 0.87", "setting": "[4]", "value": 0},
      {"measurement": "impurity peak, RRT 0.92", "setting": "[4]", "value": 0.1},
      {"measurement": "impurity peak, RRT 1.21 (Imp-B)", "setting": "[4]", "value": 0.1}
    ]},
    {"smiles": "CN1C[C@H](C(=O)N[C@]2(C)O[C@@]3(O)[C@@H]4CCCN4C(=O)[C@H](Cc4ccccc4)N3C2=O)C[C@@H]2c3cccc4[nH]cc(c34)C[C@H]21", "note": "[DHE, (5′α)-9,10-dihydro-12′-hydroxy-2′-methyl-5′-(phenylmethyl)-ergotaman-3′,6′,18-trione]", "values": [
      {"measurement": "solubility (observation in words)", "setting": "[5]", "value": "highly soluble"}
    ]}
  ]
}
